According to ChEMBL document CHEMBL3124825, “Benzimidazole: an emerging scaffold for analgesic and anti-inflammatory agents” (Eur J Med Chem, 2014):

What was measured:
[1] = target: Cannabinoid receptor 1 (Homo sapiens, UniProt P21554); experiment: Agonist activity at human CB1 receptor
[2] = target: Cannabinoid receptor 2 (Homo sapiens, UniProt P34972); experiment: Agonist activity at human CB2 receptor
[3] = species: Homo sapiens; experiment: Selectivity ratio of Ki for human CB1 receptor to Ki for human CB2 receptor

Sequence of Cannabinoid receptor 1 (P21554 whole entry): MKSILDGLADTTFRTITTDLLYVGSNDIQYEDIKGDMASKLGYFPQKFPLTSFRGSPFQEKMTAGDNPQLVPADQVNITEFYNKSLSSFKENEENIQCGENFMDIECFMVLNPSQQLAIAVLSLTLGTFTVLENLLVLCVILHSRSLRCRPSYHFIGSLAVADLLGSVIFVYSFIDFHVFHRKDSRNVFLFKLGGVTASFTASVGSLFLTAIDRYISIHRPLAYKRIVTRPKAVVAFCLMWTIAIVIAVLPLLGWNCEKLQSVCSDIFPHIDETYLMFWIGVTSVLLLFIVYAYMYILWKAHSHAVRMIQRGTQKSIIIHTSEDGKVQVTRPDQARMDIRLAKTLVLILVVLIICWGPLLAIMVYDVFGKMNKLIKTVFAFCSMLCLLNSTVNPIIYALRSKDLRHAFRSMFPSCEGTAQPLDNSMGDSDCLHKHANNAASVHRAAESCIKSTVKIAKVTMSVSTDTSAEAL
Sequence of Cannabinoid receptor 2 (P34972 whole entry): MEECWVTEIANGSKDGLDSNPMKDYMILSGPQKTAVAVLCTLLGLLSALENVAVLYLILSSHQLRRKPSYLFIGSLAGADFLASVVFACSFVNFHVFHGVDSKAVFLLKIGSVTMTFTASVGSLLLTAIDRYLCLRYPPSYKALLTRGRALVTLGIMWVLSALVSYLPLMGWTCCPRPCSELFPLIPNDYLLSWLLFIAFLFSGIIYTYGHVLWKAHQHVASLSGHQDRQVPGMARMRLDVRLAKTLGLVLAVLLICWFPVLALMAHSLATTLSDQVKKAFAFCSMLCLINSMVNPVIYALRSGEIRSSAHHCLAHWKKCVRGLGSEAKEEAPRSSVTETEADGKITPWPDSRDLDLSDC

Ki [1]: 3170 nM
Ki [2]: 3.3 nM
Ratio Ki [3]: 970
Compound: CCOc1ccc(Cc2nc3cc(C(=O)N(C)CC)ccc3n2CCC(C)C)cc1
